The record followed here is ChEMBL document CHEMBL3351747, “Structure-based design of β1i or β5i specific inhibitors of human immunoproteasomes” (J Med Chem, 2014).

Structures are written as SMILES.

In assay [1] the target is T1, Proteasome subunit beta type-8 (Homo sapiens, UniProt P28062).
T1 sequence (P28062 whole entry): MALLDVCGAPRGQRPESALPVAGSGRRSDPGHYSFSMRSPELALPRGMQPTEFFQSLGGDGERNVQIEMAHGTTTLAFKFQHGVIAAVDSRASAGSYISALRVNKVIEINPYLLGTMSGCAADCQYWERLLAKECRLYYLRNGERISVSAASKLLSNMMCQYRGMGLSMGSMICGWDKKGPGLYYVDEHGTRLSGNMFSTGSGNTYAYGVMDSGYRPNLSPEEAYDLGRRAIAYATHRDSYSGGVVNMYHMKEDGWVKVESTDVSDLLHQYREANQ
The experiment in a line: Inhibition of proteasome subunit beta-5i in human Raji cells using BODIPY-NC005 by fluorescent densitometry. The assay is classed as cell-based.

Assay [2] in a line: Inhibition of 20s proteasome subunit beta-5c in human Raji cells using BODIPY-NC005 by fluorescent densitometry. The format is cell-based.
Assay [3] can be described thus: Inhibition of 20s proteasome subunit beta-1c in human Raji cells using BODIPY- epoxomicin by fluorescent densitometry. The assay is classed as cell-based.
Assay [4] deals with T2, Proteasome subunit beta type-9 (Homo sapiens, UniProt P28065).
T2 sequence (P28065 whole entry): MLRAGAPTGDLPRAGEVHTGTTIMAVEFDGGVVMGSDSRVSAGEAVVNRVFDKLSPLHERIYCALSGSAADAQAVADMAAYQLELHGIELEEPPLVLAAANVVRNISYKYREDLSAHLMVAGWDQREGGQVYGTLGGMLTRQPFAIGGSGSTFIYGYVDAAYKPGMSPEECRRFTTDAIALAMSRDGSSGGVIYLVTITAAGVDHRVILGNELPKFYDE
The experiment in a line: Inhibition of proteasome subunit beta-1i in human Raji cells using BODIPY- epoxomicin by fluorescent densitometry. The assay is classed as cell-based.

Assay [5] has as its system Raji. The assay is described as follows: Ratio of IC50 for 20s proteasome subunit beta-1c to IC50 for proteasome subunit beta-1i in human Raji cells. The format is cell-based.
Assay [6] deals with T1, Proteasome subunit beta type-8. The assay is described as follows: Inhibition of proteasome subunit beta-5i in human RPMI8226 cells using BODIPY-NC005 by fluorescent densitometry. The format is cell-based, RPMI-8226.
Assay [7] has as its target T2, Proteasome subunit beta type-9. The assay is described as follows: Inhibition of proteasome subunit beta-1i in human RPMI8226 cells using BODIPY-NC001 by fluorescent densitometry. The format is cell-based, RPMI-8226.
The target in assay [8] is T3, Proteasome subunit beta type-10 (Homo sapiens, UniProt P40306).
T3 sequence (P40306 whole entry): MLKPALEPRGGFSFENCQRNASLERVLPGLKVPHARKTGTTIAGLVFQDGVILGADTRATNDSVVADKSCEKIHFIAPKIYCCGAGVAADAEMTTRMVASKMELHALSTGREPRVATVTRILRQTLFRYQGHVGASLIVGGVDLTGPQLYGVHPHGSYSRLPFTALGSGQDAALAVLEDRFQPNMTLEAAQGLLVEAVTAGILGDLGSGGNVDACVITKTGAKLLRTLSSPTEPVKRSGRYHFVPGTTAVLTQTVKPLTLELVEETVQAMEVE
The experiment in a line: Inhibition of proteasome subunit beta-2i in human Raji cells using BODIPY- epoxomicin by fluorescent densitometry. The format is cell-based.

Assay [9] can be described thus: Inhibition of 20s proteasome subunit beta-2c in human RPMI8226 cells using BODIPY-epoxomicin by fluorescent densitometry. The conditions noted are these: rpmi-8226. The format is cell-based.
A short description of assay [10]: Inhibition of 20s proteasome subunit beta-1c in human RPMI8226 cells using BODIPY-NC001 by fluorescent densitometry. The format is cell-based. The settings on record: rpmi-8226.
A short description of assay [11]: Inhibition of 20s proteasome subunit beta-5c in human RPMI8226 cells using BODIPY-NC005 by fluorescent densitometry. The assay is classed as cell-based. The settings on record: rpmi-8226.
Assay [12] can be described thus: Inhibition of 20s proteasome subunit beta-2c in human Raji cells using BODIPY- epoxomicin by fluorescent densitometry. The format is cell-based.

One may read the IC50 as the concentration that gives 50% inhibition. Low readings indicate higher potency, high ones lower potency. Turning to `COc1ccc(C[C@H](NC(=O)[C@H](C)NC(=O)CN2CCOCC2)C(=O)N[C@H](/C=C/S(C)(=O)=O)Cc2ccccc2)cc1`, the IC50 in [1] came out at 392 nM; in assay [2] it was 14000 nM.
For `COc1ccc(C[C@H](NC(=O)[C@H](C)NC(=O)CN2CCOCC2)C(=O)N[C@H](/C=C/S(C)(=O)=O)CC2CCCCC2)cc1`, in that order: 5700 nM and greater than 100000 nM.
In the case of `CCCC[C@H](NC(=O)[C@@H]1CCCCN1C(=O)[C@H](C)NC(=O)CN=[N+]=[N-])C(=O)N[C@@H](CC(C)C)C(=O)[C@@]1(C)CO1`, the IC50 in assay [3] was determined as 250 nM; in assay [4], 67 nM. The Ratio IC50 in assay [5] was found to be 3.7.
As for `C[C@@H](NC(=O)CN1CCOCC1)C(=O)N[C@@H](Cc1c[nH]c2ccccc12)C(=O)N[C@@H](Cc1ccc(-c2ccccc2)cc1)C(=O)[C@@]1(C)CO1`, the IC50 in [1] was found to be 2.1 nM; in [2], 14 nM.
Taken in the same sequence, the figures for `COc1ccc(C[C@H](NC(=O)[C@@H](C)NC(=O)C2=C(C)c3ccccc3C2)C(=O)N[C@@H](Cc2ccc(-c3ccccc3)cc2)C(=O)[C@@]2(C)CO2)cc1` were 3.3 nM and 43 nM.
For `COc1ccc(C[C@H](NC(=O)[C@H](C)NC(=O)CN2CCOCC2)C(=O)N[C@@H](CC2CCCCC2)C(=O)[C@@]2(C)CO2)cc1`, the IC50 in assay [1] is 6.6 nM; in assay [6] it was 44 nM; in [4] it was 300 nM; in assay [7], 370 nM.
For the molecule `COc1ccc(C[C@H](NC(=O)[C@H](C)NC(=O)C2=C(C)c3ccccc3C2)C(=O)N[C@@H](CC2CCCCC2)C(=O)[C@@]2(C)CO2)cc1`, the IC50 in assay [1] worked out at 3 nM; in assay [2], 14.5 nM.
As to `CCCC[C@H](NC(=O)[C@@H]1C[C@@H](F)CN1C(=O)[C@H](C)NC(=O)CN=[N+]=[N-])C(=O)N[C@@H](CC(C)C)C(=O)[C@@]1(C)CO1`, the IC50 worked out at 66 nM in assay [3] and 22 nM in [4]. Moreover, the Ratio IC50 in [5] was 3.
With `COc1ccc(C[C@H](NC(=O)[C@H](C)NC(=O)CN2CCOCC2)C(=O)N[C@@H](CC23CC4CC(CC(C4)C2)C3)C(=O)[C@@]2(C)CO2)cc1`, the IC50 in [1] and in assay [2] was greater than 50000 nM throughout.
Turning to `COc1ccc(C[C@H](NC(=O)[C@@H](C)NC(=O)CN2CCOCC2)C(=O)N[C@@H](CC2CCCCC2)C(=O)[C@@]2(C)CO2)cc1`, the IC50 in assay [1] is 36 nM; in assay [6], 100 nM; in [4], greater than 10000 nM; in assay [7], 7300 nM.
On to `COc1ccc(C[C@H](NC(=O)[C@H](C)NC(=O)C2=C(C)c3ccccc3C2)C(=O)N[C@@H](Cc2ccc(-c3ccccc3)cc2)C(=O)[C@@]2(C)CO2)cc1`, for which the IC50 was 1.4 nM in [1] and 12.6 nM in assay [2].
`CCCC[C@H](NC(=O)[C@@H]1C[C@@H](O)CN1C(=O)[C@H](C)NC(=O)CN=[N+]=[N-])C(=O)N[C@@H](CC(C)C)C(=O)[C@@]1(C)CO1`: the IC50 in [3] was 860 nM; in [4] it was 170 nM. Also, the Ratio IC50 in assay [5] came out at 5.
`CCCC[C@H](NC(=O)[C@@H]1CC(F)(F)CN1C(=O)[C@H](C)NC(=O)CN=[N+]=[N-])C(=O)N[C@@H](Cc1ccccc1)C(=O)[C@@]1(C)CO1`: the IC50 in [3] is 4800 nM; in [4] it was 42 nM; in assay [8], greater than 100000 nM. For the same molecule, the Ratio IC50 in assay [5] came to 114.
On to `CCCC[C@H](NC(=O)[C@@H]1CSCN1C(=O)[C@H](C)NC(=O)CN=[N+]=[N-])C(=O)N[C@@H](CC(C)C)C(=O)[C@@]1(C)CO1`, for which the IC50 stood at 240 nM in assay [3] and 68 nM in assay [4]. The Ratio IC50 in assay [5] is 6.5.
`C[C@@H](NC(=O)CN1CCOCC1)C(=O)N[C@@H](Cc1c[nH]c2ccccc12)C(=O)N[C@@H](Cc1ccccc1)C(=O)[C@@]1(C)CO1`: the IC50 in [1] was 13 nM; in assay [2] it was 104 nM.
For `COc1ccc(C[C@H](NC(=O)[C@H](C)NC(=O)C2=C(C)c3ccccc3C2)C(=O)N[C@@H](Cc2ccccc2)C(=O)[C@@]2(C)CO2)cc1`, in that order: 5 nM and 6 nM.
In the case of `COc1ccc(C[C@H](NC(=O)[C@H](C)NC(=O)CN2CCOCC2)C(=O)N[C@@H](Cc2cccc3ccccc23)C(=O)[C@@]2(C)CO2)cc1`, the IC50 in assay [1] was determined as 244 nM; in assay [2] it was 1800 nM.
Take `CCCC[C@H](NC(=O)[C@@H]1CCCN1C(=O)[C@H](C)NC(=O)CN=[N+]=[N-])C(=O)N[C@@H](Cc1ccccc1)C(=O)[C@@]1(C)CO1`: the IC50 is 580 nM in assay [3], 66 nM in [4] and greater than 100000 nM in [8]. Further, the Ratio IC50 in assay [5] stood at 9.
With `COc1ccc(C[C@H](NC(=O)[C@H](C)NC(=O)CN2CCOCC2)C(=O)N[C@@H](Cc2ccc(-c3ccccc3)cc2)C(=O)[C@@]2(C)CO2)cc1`, the IC50 turned out to be 2 nM in assay [1] and 20 nM in assay [2].
As for `CCCC[C@H](NC(=O)[C@@H]1C[C@H](F)CN1C(=O)[C@H](C)NC(=O)CN=[N+]=[N-])C(=O)N[C@@H](CC(C)C)C(=O)[C@@]1(C)CO1`, the half-inhibitory concentration (IC50) was 510 nM in assay [3] and 220 nM in assay [4]. Besides, the Ratio IC50 in [5] turned out to be 2.3.
In the case of `CCCCCCC(=O)N[C@@H](C)C(=O)N[C@@H](CC(C)C)C(=O)[C@@]1(CO[Si](C)(C)C(C)(C)C)CO1`, the IC50 in assay [3] stood at 15000 nM; in assay [4], 104 nM; in assay [8], 25000 nM. In [5], the Ratio IC50 amounted to 144.
With `CC1=C(C(=O)N[C@H](C)C(=O)N[C@@H](Cc2c[nH]c3ccccc23)C(=O)N[C@@H](Cc2ccc(-c3ccccc3)cc2)C(=O)[C@@]2(C)CO2)Cc2ccccc21`, the IC50 in assay [1] turned out to be 5 nM; in assay [2], 79 nM.
For `CCCC[C@H](NC(=O)[C@@H]1CCN1C(=O)[C@H](C)NC(=O)CN=[N+]=[N-])C(=O)N[C@@H](CC(C)C)C(=O)[C@@]1(C)CO1`, the IC50 is 54 nM in assay [3] and 96 nM in [4]. In addition, the Ratio IC50 in assay [5] turned out to be 0.6.
For `CCCC[C@H](NC(=O)[C@@H]1CC(F)(F)CN1C(=O)[C@H](C)NC(=O)CN=[N+]=[N-])C(=O)N[C@@H](CC(C)C)C(=O)[C@@]1(C)CO1`, in that order: 360 nM, 34 nM and 10.5.
Turning to `CC1=C(C(=O)N[C@H](C)C(=O)N[C@@H](Cc2c[nH]c3ccccc23)C(=O)N[C@H](/C=C/S(C)(=O)=O)CC2CCCCC2)Cc2ccccc21`, the IC50 was 632 nM in assay [1] and 62000 nM in [2].
`COc1ccc(C[C@H](NC(=O)[C@H](C)NC(=O)CN2CCOCC2)C(=O)N[C@@H](Cc2ccccc2)C(=O)[C@@]2(C)CO2)cc1`: the IC50 in assay [9] was 1100 nM; in [10] it was greater than 5000 nM; in assay [11], 180 nM; in assay [3], greater than 10000 nM; in assay [12] it was 1100 nM; in assay [2], 54 nM.
For the molecule `COc1ccc(C[C@H](NC(=O)[C@H](C)NC(=O)CN2CCOCC2)C(=O)N[C@@H](Cc2ccc3ccccc3c2)C(=O)[C@@]2(C)CO2)cc1`, the IC50 stood at 3.1 nM in assay [1] and 97 nM in [2].
For `COc1ccc(C[C@H](NC(=O)[C@@H](C)NC(=O)C2=C(C)c3ccccc3C2)C(=O)N[C@@H](Cc2ccccc2)C(=O)[C@@]2(C)CO2)cc1`, in that order: 3 nM and 157 nM.
As to `COc1ccc(C[C@H](NC(=O)[C@@H](C)NC(=O)CN2CCOCC2)C(=O)N[C@@H](Cc2ccccc2)C(=O)[C@@]2(C)CO2)cc1`, in assay [2], half-maximal inhibition (IC50) was put at 116 nM. That is a sub-micromolar value.
Turning to `CCCC[C@H](NC(=O)[C@@H]1CCCN1C(=O)[C@H](C)NC(=O)CN=[N+]=[N-])C(=O)N[C@@H](CC1CCCCC1)C(=O)[C@@]1(C)CO1`, the IC50 in assay [3] was 3400 nM; in assay [4] it was 87 nM; in assay [8], greater than 30000 nM. Also, in assay [5], the Ratio IC50 is 39.
As for `COc1ccc(C[C@H](NC(=O)[C@@H](C)NC(=O)CN2CCOCC2)C(=O)N[C@@H](Cc2ccc(-c3ccccc3)cc2)C(=O)[C@@]2(C)CO2)cc1`, the IC50 in assay [1] was determined as 1.2 nM; in [2] it was 9.9 nM.
